Laboratory results taken from US20240002441A1, “PEPTIDES AND USES THEREOF IN MODULATION OF AMYLOID-BETA PROTEIN DEGRADING PROTEASES” (priority 2020, published 2024).

What was measured:
[1] = molecular target: T1, ACE1 (Homo sapiens, UniProt P12821); assay: QFS assay of Aβ-degrading enzymes: ACE1 (Example 6); assay type: biochemical
T1 construct: purchased Sigma Aldrich SRP6270-10UG
Experimental: (§1) Plate reader-based enzyme assays were performed using a quenched fluorescent substrate (QFS) in a 96-well format using a SpectraMAX M4 Microplate reader (Molecular Devices). The increase in fluorescence following addition of QFS (40 μM) was taken as evidence of enzyme activity. Fluorescence was monitored over 2 h at 37° C. using κEx=320 nm and λEm=405 nm. Assays were conducted in black 96-well plates. Specific enzyme activity was expressed as a rate of substrate cleavage calculated using a standard curve of 7-methoxy-coumarin-4-acetic acid.
(§2) In all plate reader-based enzyme assays using QFS, the reaction rate (μmol of substrate cleaved/min) was calculated using linear regression analysis (GraphPad Prism software version 8.01). The reaction rates calculated were used to generate the enzyme kinetic parameters Vmax and Km through non-linear regression analysis (GraphPad Prism software, version 8.01; Michaelis-Menten equation). Where indicated, enzyme activity in the presence of peptide was expressed as a % of the enzyme alone. Data were expressed as mean±SEM and statistical significance was determined using t-tests or one-way ANOVAs followed by Tukey's post-hoc test. P<0.05 was considered as statistically significant. In all assays conducted using 96-well plates, the reaction mixtures in each well were considered an independent experiment.
SEQ ID NO:2 was assessed in a QFS assay against enzymes NEP, ECE1, ECE2, ACE1, ACE2, IDE and MMP-2 using the method in Example 2 and the following procedure. NEP, ACE1, ECE2 (0.05 ng/μL), ACE2, IDE (0.10 ng/μL), and ECE1 (6.4 ng/μL) were incubated with SEQ ID NO:2 (0.9-26 μM) or scrambled control (9 μM) for 1 h at 37° C. Prior to use, MMP2 (0.50 ng/μL) was activated using p-aminophenylmercuric acetate to a final concentration of 100 μM for 1 h at 37° C. Following activation, MMP2 was incubated with SEQ ID NO:2 for 1 h at 37° C. before adding the appropriate QFS.

[2] = molecular target: T2, ECE2 (Homo sapiens, UniProt P0DPD6); assay: QFS assay of Aβ-degrading enzymes: ECE2 (Example 6); assay type: biochemical
T2 construct: purchased R & D systems 1645-ZN-010
T2 sequence (P0DPD6 1-811): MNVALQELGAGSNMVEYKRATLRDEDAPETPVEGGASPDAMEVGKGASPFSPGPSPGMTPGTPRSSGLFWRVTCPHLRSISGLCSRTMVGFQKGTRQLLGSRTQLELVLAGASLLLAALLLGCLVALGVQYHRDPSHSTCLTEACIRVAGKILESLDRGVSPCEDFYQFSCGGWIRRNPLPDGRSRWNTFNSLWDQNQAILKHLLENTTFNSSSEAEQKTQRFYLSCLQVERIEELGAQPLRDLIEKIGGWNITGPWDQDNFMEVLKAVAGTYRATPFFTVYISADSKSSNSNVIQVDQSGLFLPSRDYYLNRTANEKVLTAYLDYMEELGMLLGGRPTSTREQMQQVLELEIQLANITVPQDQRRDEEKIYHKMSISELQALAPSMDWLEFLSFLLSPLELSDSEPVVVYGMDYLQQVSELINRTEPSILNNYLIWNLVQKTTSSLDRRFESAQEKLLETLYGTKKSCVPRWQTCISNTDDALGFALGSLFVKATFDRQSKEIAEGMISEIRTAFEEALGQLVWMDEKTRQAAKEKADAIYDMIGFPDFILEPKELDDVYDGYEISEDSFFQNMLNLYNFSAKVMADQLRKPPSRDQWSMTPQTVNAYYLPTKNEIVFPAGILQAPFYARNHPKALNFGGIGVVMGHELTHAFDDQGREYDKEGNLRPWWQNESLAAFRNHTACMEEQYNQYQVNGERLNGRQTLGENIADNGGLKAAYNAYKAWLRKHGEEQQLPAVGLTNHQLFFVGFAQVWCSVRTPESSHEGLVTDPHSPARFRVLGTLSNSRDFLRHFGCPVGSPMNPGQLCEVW
Experimental: as §1
as §2, with “In all assays conducted using 96-well plates, the reaction mixtures in each well were considered an independent experiment.” left out
SEQ ID NO:2 was assessed in a QFS assay against enzymes NEP, ECE1, ECE2, ACE1, ACE2, IDE and MMP-2 using the method in Example 2 and the following procedure. […]

[3] = Peptide stability control, medium with no cells (Example 4); assay type: in vitro ADME; conditions: media only (no cells), possible adherence to plastic
Experimental: HEK293 (passage 24) or Ea.hy926 (passage 37) were seeded into tissue-culture-grade 96-well plates at a density of 20,000 cells/well. After 24 hr, cells were washed with PBS and replaced with Opti-MEM reduced serum media containing SEQ ID NO:1 or SEQ ID NO:2 (9 μM). Aliquots of equal volume were taken at T=0 and 60 min. SEQ ID NO:2 was added to control wells having media (no cells) only. Samples were immediately acidified in 0.1% TFA, snap frozen in dry ice and stored in −80° C. until analysed by LCMS.
Samples were analyzed by LC-MS/MS on a Shimadzu Nexera uHPLC (Japan) coupled to a Triple Tof 5600 mass spectrometer (ABSCIEX, Canada) equipped with a duo electrospray ion source. One μL of each extract was injected onto a 2.1 mm×100 mm Zorbax C18 1.8 um column (Agilent) at 200 μL/min. Linear gradients of 1-50% solvent B over 7 min at 200 uL/min flow rate, followed by a steeper gradient from 50% to 98% solvent B in 1 min were used for peptide elution. Solvent B was held at 98% for 3 min for washing the column and returned to 1% solvent B for equilibration prior to the next sample injection. […] SEQ ID NO:1 and SEQ ID NO:2 were quantified using the […] doubly charged molecular ion from m/z 510.270 to 510.325. The data was acquired using Analyst TF 1.6 and quantification was carried out using MultiQuant 2.1.1 software (ABSCIEX, Canada).

T1 sequence (P12821 30-1306): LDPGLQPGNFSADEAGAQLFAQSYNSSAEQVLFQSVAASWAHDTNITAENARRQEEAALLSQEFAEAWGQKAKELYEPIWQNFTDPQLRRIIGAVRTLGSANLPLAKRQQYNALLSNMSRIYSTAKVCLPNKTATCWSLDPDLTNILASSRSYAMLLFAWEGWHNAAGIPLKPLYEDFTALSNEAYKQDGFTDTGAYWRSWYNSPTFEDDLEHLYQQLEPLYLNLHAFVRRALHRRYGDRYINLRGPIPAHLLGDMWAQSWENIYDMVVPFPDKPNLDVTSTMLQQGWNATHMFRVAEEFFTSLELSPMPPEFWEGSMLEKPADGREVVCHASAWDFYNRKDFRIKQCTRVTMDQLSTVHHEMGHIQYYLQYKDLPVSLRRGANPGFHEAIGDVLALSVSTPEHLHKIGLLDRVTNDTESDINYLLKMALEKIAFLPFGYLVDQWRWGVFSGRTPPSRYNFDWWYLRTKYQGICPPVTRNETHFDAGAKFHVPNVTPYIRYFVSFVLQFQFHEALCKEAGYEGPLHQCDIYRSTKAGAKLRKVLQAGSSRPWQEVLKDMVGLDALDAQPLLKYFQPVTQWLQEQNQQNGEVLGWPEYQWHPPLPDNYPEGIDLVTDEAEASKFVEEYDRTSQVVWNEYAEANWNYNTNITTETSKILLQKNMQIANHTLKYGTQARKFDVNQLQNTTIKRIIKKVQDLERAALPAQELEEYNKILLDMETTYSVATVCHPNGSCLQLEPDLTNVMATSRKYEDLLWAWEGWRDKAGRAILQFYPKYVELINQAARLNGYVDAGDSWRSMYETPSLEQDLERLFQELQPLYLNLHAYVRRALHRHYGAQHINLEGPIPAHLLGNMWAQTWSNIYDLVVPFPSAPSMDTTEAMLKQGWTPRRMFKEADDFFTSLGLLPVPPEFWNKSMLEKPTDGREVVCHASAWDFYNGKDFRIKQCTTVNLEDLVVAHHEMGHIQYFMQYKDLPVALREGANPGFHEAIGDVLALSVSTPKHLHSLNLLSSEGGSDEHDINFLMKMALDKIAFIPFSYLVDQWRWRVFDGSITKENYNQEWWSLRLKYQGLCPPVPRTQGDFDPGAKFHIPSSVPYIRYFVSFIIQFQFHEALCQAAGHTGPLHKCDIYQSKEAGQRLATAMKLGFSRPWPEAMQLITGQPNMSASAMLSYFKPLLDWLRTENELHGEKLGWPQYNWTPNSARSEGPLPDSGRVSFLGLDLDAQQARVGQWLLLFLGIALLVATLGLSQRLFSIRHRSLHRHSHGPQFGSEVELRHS

## H-SLFELGKMIL-NH2 [SEQ ID NO:2, H2N-SLFELGKMIL-NH2]
[1]; peptide 2 μM (FIG. 2c)
  ACE1 activity compared with respective enzyme alone: significantly increased
[1]; peptide 9 μM, significantly less compared with ACE2 and NEP
  ACE1 activity compared with respective enzyme alone: significantly higher
[1]; peptide 0.9-26 μM
  ACE1 activity, concentration dependence: increased the activity
[2]; peptide 2 μM (FIG. 2c)
  ECE2 activity compared with respective enzyme alone: did not increase
[2]; peptide 0.9-26 μM
  ECE2 activity, concentration dependence: did not affect
[3]
  amount remaining in the medium with no cells after 60 min: 63%±14%
